Test results published in patent US6841556B2, “Pyrazoloisoquinoline derivatives for inhibiting NFκB-inducing kinase” (Aventis Pharma Deutschland GmbH, priority 2002, dated 2005).

How the values were obtained:
[1] = system: human peripheral blood lymphocytes; experiment: Cytotoxicity by LDH release, LPS-stimulated human peripheral blood lymphocytes; format: cell-based
Method: (§1) The pyrazoloisoquinoline derivatives according to the invention were tested for inhibitory activity against NIK in various in vitro assay systems. In this connection, human peripheral blood lymphocytes were preincubated for 1 h with different concentrations of the compounds and then stimulated for 24 h with LPS or IL1β. After that, a commercially obtainable ELISA test kit was used to measure the release of TNFα in the culture supernatant, and the IC50 for the given compound was determined. The cytotoxicity was measured by way of LDH release using a commercially obtainable test kit and the LD50 for the given compound was determined.

[2] = system: human peripheral blood lymphocytes; experiment: Cytotoxicity by LDH release, IL1β-stimulated human peripheral blood lymphocytes; format: cell-based
Method: as §1

COc1cccc(-c2nc3c(C)n[nH]c3c3ccccc23)c1 [Example 2, 5-(3-Methoxyphenyl)-3-methyl-1H-pyrazolo[4,3-c]isoquinoline]
Cytotoxicity LD50 [1]: >100 µM | Cytotoxicity LD50 [2]: >100 µM

Cc1n[nH]c2c1nc(-c1cccc(O)c1)c1ccccc12 [Example 3, 3-(3-Methyl-1H-pyrazolo[4,3-c]isoquinolin-5-yl)phenol]
Cytotoxicity LD50 [1]: >100 µM | Cytotoxicity LD50 [2]: >100 µM

c1ccc(-c2nc3c(-c4ccccc4)n[nH]c3c3ccccc23)cc1 [Example 1, 3,5-Diphenyl-1H-pyrazolo[4,3-c]isoquinoline]
Cytotoxicity LD50 [1]: >100 µM | Cytotoxicity LD50 [2]: >100 µM
